Source: patent US8367873B2, “Phenyl-substituted bicyclooctane-1,3-dione derivatives” (Bayer Cropscience AG, priority 2008, dated 2013)

Experiments:
Format in all cases: in vivo
[1] = tested on: monocotylidonous and dicotylidonous weed and crop plants; test: Herbicidal pre-emergence action (other test plants); conditions: pre-emergence method, 80 g/ha, greenhouse, visual assessment vs untreated controls
Outline: (§1)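 Seeds sown in sandy loam and covered with soil; WP-formulated compounds applied as aqueous suspension (600 l/ha water, 0.2% wetting agent) to the soil surface at various rates. Greenhouse-grown; emergence damage scored visually after three weeks versus untreated controls (0% = like control, 100% = plants dead).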

Alopecurus myosuroides [2] = test: Herbicidal post-emergence action; conditions: post-emergence method, 80 g/ha
Outline: (§2)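 One-leaf-stage greenhouse plants sprayed with WP at graded amounts (600 l/ha, 0.2% wetting agent); ~3 wk later, visual % effect rated vs untreated controls, 100% = dead, 0% = like control.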

Lolium multiflorum [3] = test: Herbicidal post-emergence action; conditions: post-emergence method, 80 g/ha
Outline: as §2

Echinocloa crus-galli [4] = test: Herbicidal post-emergence action; conditions: post-emergence method, 80 g/ha
Outline: as §2

Setaria viridis [5] = test: Herbicidal post-emergence action; conditions: post-emergence method, 80 g/ha
Outline: as §2

Alopecurus myosuroides [6] = test: Herbicidal pre-emergence action; conditions: pre-emergence method, 80 g/ha, greenhouse, visual assessment vs untreated controls
Outline: as §1

Lolium multiflorum [7] = test: Herbicidal pre-emergence action; conditions: pre-emergence method, 80 g/ha, greenhouse, visual assessment vs untreated controls
Outline: as §1

Echinocloa crus-galli [8] = test: Herbicidal pre-emergence action; conditions: pre-emergence method, 80 g/ha, greenhouse, visual assessment vs untreated controls
Outline: as §1

Setaria viridis [9] = test: Herbicidal pre-emergence action; conditions: pre-emergence method, 80 g/ha, greenhouse, visual assessment vs untreated controls
Outline: as §1

[10] = tested on: monocotylidonous and dicotylidonous weed and crop plants; test: Herbicidal post-emergence action (other test plants); conditions: post-emergence method, 80 g/ha
Outline: as §2

SMILES	herbicidal effect AVEFA [1] [%]	herbicidal effect against ALOMY (Alopecurus myosuroides) (Alopecurus myosuroides [2]) [%]	herbicidal effect against LOLMU (Lolium multiflorum) (Lolium multiflorum [3]) [%]	herbicidal effect against ECHCG (Echinochloa crus-galli) (Echinocloa crus-galli [4]) [%]	herbicidal effect against SETVI (Setaria viridis) (Setaria viridis [5]) [%]	herbicidal effect ALOMY (Alopecurus myosuroides [6]) [%]	herbicidal effect LOLMU (Lolium multiflorum [7]) [%]	herbicidal effect ECHCG (Echinocloa crus-galli [8]) [%]	herbicidal effect SETVI (Setaria viridis [9]) [%]	herbicidal effect against AVEFA (Avena fatua) [10] [%]
C=C1CC2C(=O)C(c3c(C)cc(C)cc3OC)=C(OC(=O)OCC)C2C1 (racemic) [I-c-61]	60	40	70	90	90	70	50	90	90	0
CCOC(=O)OC1=C(c2c(C)cc(C)cc2OC)C(=O)C2CC3(CC12)OCCCO3 (racemic) [I-c-63]	70	100	100	100	100	80	100	50	50	100
CCOC(=O)OC1=C(c2c(C)cc(C)cc2OC)C(=O)C2CC3(CC12)OCCO3 (racemic) [I-c-64]	70	80	100	100	100	60	100	50	70	80
CCOC(=O)OC1=C(c2c(C)cc(C)cc2OC)C(=O)C2CC3(CC12)OCC=CCO3 (racemic) [I-c-65]	60	100	100	100	100	100	100	80	90	100
CCOC(=O)OC1=C(c2c(C)cc(C)cc2OC)C(=O)C2CC3(CC12)OCCCCO3 (racemic) [I-c-66]	70	100	100	100	100	100	100	100	60	100
CCOC(=O)OC1=C(c2c(C)cc(C)cc2CC)C(=O)C2CC3(CC12)OCC=CCO3 (racemic) [I-c-72]	50	100	100	100	100	60	100	100	80	70
CCc1cc(C)cc(C)c1C1=C(OC(=O)OC)C2CC3(CC2C1=O)OCC=CCO3 (racemic) [I-c-73]	40	100	100	100	100	70	100	50	60	0
CCc1cc(C)cc(C)c1C1=C(OC(=O)OC(C)C)C2CC3(CC2C1=O)OCC=CCO3 (racemic) [I-c-74]	60	60	100	100	100	70	100	100	100	70
CCOC(=O)OC1=C(c2c(C)cc(C)cc2CC)C(=O)C2CC3(CC12)OCCCCO3 (racemic) [I-c-75]	60	60	100	100	100	70	100	100	60	50
C=C1CC2C(=O)C(c3c(C)cc(C)cc3CC)=C(OC(=O)OCC)C2C1 (racemic) [I-c-76]	20	10	90	100	100	80	90	100	90	0
C=C1CC2C(=O)C(c3c(C)cc(C)cc3CC)=C(OC(=O)OC)C2C1 (racemic) [I-c-77]	80	0	90	100	90	80	90	80	100	0
CCc1cc(C)cc(CC)c1C1=C(O)[C@H]2CC3(C[C@H]2C1=O)OCC(C)(C)CO3 (relative stereo) [I-a-9]	70	60	90	100	90	90	100	100	90	60
CCc1cc(C)cc(CC)c1C1=C(O)[C@H]2CC3(C[C@H]2C1=O)OC(C)(C)C(C)(C)O3 (relative stereo) [I-a-19]	20	80	100	90	50	90	100	0	20	0
CCc1cc(C)cc(CC)c1C1=C(O)[C@H]2CC3(C[C@H]2C1=O)OCC(OC)CO3 (relative stereo) [I-a-26]	70	100	100	100	100	100	100	100	100	100
